The target of this assay is T1, N-terminal HiBiT tagged BCL6 (Homo sapiens, UniProt P41182).
T1 construct: expressed in transfected cells; host or cells: HT1080 (ATCC CCL-121), stably transduced with lentivirus pLV-UBC-N-HiBiT-BCL6-PGK-puro
Kind of assay: HiBiT based degradation assay. Particulars: HT1080 cells expressing N-terminal HiBiT tagged BCL6, 5 hours of incubation; for Ymin (5 hr): BCL6 degradation normalized with DMSO control; for DC50: four-parameter logistic model, read-out: EC50 (5 hr). In kind it is cell-based. In short, it runs like this:
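Degradation measured by luminescence from the Nano-Glo HiBiT lytic reagent (15 min, room temperature), normalized to DMSO controls and fitted to a four-parameter curve.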

As to `CNC(=O)COc1cc2cc(Nc3nc(N4CCC([C@](C)(O)C5CCN(c6cccc7c(C8CCC(=O)NC8=O)nn(C)c67)CC5)CC4)ncc3Cl)cnc2n(C(C)C)c1=O` (stereo in doubt) [Compound 194b, rel-2-((6-((5-chloro-2-(4-((1R)-1-(1-(3-(2,6-dioxopiperidin-3-yl)-1-methyl-1H-indazol-7-yl)piperidin-4-yl)-1-hydroxyethyl)piperidin-1-yl)pyrimidin-4-yl)amino)-1-isopropyl-2-oxo-1,2-dihydro-1,8-naphthyridin-3-yl)oxy)-N-methylacetamide], the “Ymin (5 hr)” value is “+++ (30% ≤ Ymin < 50%)” and the DC50 was in the range of 10 to 100 nM.

On to `CNC(=O)COc1cc2cc(Nc3nc(N4CCC5(CCC(CN6CCN(c7ccc8c(C9CCC(=O)NC9=O)nn(C)c8c7)CC6)CC5)CC4)ncc3Cl)cnc2n(C(C)C)c1=O` (stereo not shown) [Compound 204, 2-((6-((5-chloro-2-(9-((4-(3-(2,6-dioxopiperidin-3-yl)-1-methyl-1H-indazol-6-yl)piperazin-1-yl)methyl)-3-azaspiro[5.5]undecan-3-yl)pyrimidin-4-yl)amino)-1-isopropyl-2-oxo-1,2-dihydro-1,8-naphthyridin-3-yl)oxy)-N-methylacetamide], for which the “Ymin (5 hr)” value is recorded as “++++ (Ymin < 30%)” and the DC50 was 10 to 100 nM.

In the case of `CNC(=O)COc1cc2cc(Nc3nc(NC4CCC5(CC4)CN(c4ccc6c(C7CCC(=O)NC7=O)nn(C)c6c4)C5)ncc3Cl)cnc2n(C(C)C)c1=O` (stereo not shown) [Compound 206, 2-[[6-[[5-chloro-2-[[2-[3-(2,6-dioxo-3-piperidyl)-1-methyl-indazol-6-yl]-2-azaspiro[3.5]nonan-7-yl]amino]pyrimidin-4-yl]amino]-1-isopropyl-2-oxo-1,8-naphthyridin-3-yl]oxy]-N-methyl-acetamide], the “Ymin (5 hr)” value is “++++ (Ymin < 30%)” and the DC50 is less than 10 nM.

Turning to `CNC(=O)COc1cc2cc(Nc3nc(N4CC5(CCC(Oc6cccc7c(C8CCC(=O)NC8=O)nn(C)c67)CC5)C4)ncc3Cl)cnc2n(C)c1=O` (stereo not shown) [Compound 142, 2-((6-((5-chloro-2-(7-((3-(2,6-dioxopiperidin-3-yl)-1-methyl-1H-indazol-7-yl)oxy)-2-azaspiro[3.5]nonan-2-yl)pyrimidin-4-yl)amino)-1-methyl-2-oxo-1,2-dihydro-1,8-naphthyridin-3-yl)oxy)-N-methylacetamide], the “Ymin (5 hr)” value is reported as “+++ (30% ≤ Ymin < 50%)” and the DC50 was less than 10 nM.

With `CNC(=O)COc1cc2cc(Nc3nc(N4CCC([C@@](C)(O)C5CCN(c6cccc7c(C8CCC(=O)NC8=O)nn(C)c67)CC5)CC4)ncc3Cl)cnc2n(C(C)C)c1=O` (single isomer, unassigned) [Compound 194a], the “Ymin (5 hr)” value is given as “++++ (Ymin < 30%)” and the DC50 was in the range of 10 to 100 nM.

For the compound `CNC(=O)COc1cc2cc(Nc3nc(N4CCN(CC5CCN(c6cccc7c(C8CCC(=O)NC8=O)nn(C)c67)CC5)[C@H](C(C)(C)O)C4)ncc3Cl)cnc2n(C(C)C)c1=O` (stereo partly drawn) [Compound 208a, 2-[[6-[[5-chloro-2-[(3S)-4-[[1-[3-(2,6-dioxo-3-piperidyl)-1-methyl-indazol-7-yl]-4-piperidyl]methyl]-3-(1-hydroxy-1-methyl-ethyl)piperazin-1-yl]pyrimidin-4-yl]amino]-1-isopropyl-2-oxo-1,8-naphthyridin-3-yl]oxy]-N-methyl-acetamide], the “Ymin (5 hr)” value is “+++ (30% ≤ Ymin < 50%)” and the DC50 was 10 to 100 nM.

As for `CNC(=O)COc1cc2cc(Nc3nc(N4CC[C@H](CN5CCN(c6ccc7c(C8CCC(=O)NC8=O)nn(C)c7c6)CC5)C4)ncc3Cl)cnc2n(C(C)C)c1=O` (stereo partly drawn) [Compound 218b, 2-[[6-[[5-chloro-2-[(3R)-3-[[4-[3-(2,6-dioxo-3-piperidyl)-1-methyl-indazol-6-yl]piperazin-1-yl]methyl]pyrrolidin-1-yl]pyrimidin-4-yl]amino]-1-isopropyl-2-oxo-1,8-naphthyridin-3-yl]oxy]-N-methyl-acetamide], the “Ymin (5 hr)” value is listed as “+++ (30% ≤ Ymin < 50%)” and the DC50 was less than 10 nM.

For the compound `CNC(=O)COc1cc2cc(Nc3nc(N4CCN(CC5CCN(c6cccc7c(C8CCC(=O)NC8=O)nn(C)c67)CC5)[C@@H](C(C)(C)O)C4)ncc3Cl)cnc2n(C(C)C)c1=O` (stereo partly shown) [Compound 208b], the “Ymin (5 hr)” value is “++++ (Ymin < 30%)” and the DC50 was in the range of 10 to 100 nM.

For the compound `CNC(=O)COc1cc2cc(Nc3nc(N4CCN(CC5CCN(c6ccc7c(C8CCC(=O)NC8=O)nn(C)c7c6)CC5)CC4)ncc3Cl)cnc2n(C)c1=O` (stereo not shown) [Compound 107, 2-((6-((5-chloro-2-(4-((1-(3-(2,6-dioxopiperidin-3-yl)-1-methyl-1H-indazol-6-yl)piperidin-4-yl)methyl)piperazin-1-yl)pyrimidin-4-yl)amino)-1-methyl-2-oxo-1,2-dihydro-1,8-naphthyridin-3-yl)oxy)-N-methylacetamide], the “Ymin (5 hr)” value was “+++ (30% ≤ Ymin < 50%)” and the DC50 was less than 10 nM.

For the compound `CNC(=O)COc1cc2cc(Nc3nc(N4CC5(CC(N(C)c6ccc7c(C8CCC(=O)NC8=O)nn(C)c7c6)C5)C4)ncc3Cl)cnc2n(C(C)C)c1=O` (stereo not shown) [Compound 207, 2-[[6-[[5-chloro-2-[6-[[3-(2,6-dioxo-3-piperidyl)-1-methyl-indazol-6-yl]-methyl-amino]-2-azaspiro[3.3]heptan-2-yl]pyrimidin-4-yl]amino]-1-isopropyl-2-oxo-1,8-naphthyridin-3-yl]oxy]-N-methyl-acetamide], the “Ymin (5 hr)” value was “+++ (30% ≤ Ymin < 50%)” and the DC50 is less than 10 nM.

As for `CNC(=O)COc1cc2cc(Nc3nc(N4CCC(CN5CCN(c6cccc7c(C8CCC(=O)NC8=O)nn(C)c67)C[C@@H]5C)CC4)ncc3F)cnc2n(C(C)C)c1=O` (stereo partly drawn) [Compound 188b, 2-[[6-[[2-[4-[[(2S)-4-[3-(2,6-dioxo-3-piperidyl)-1-methyl-indazol-7-yl]-2-methyl-piperazin-1-yl]methyl]-1-piperidyl]-5-fluoro-pyrimidin-4-yl]amino]-1-isopropyl-2-oxo-1,8-naphthyridin-3-yl]oxy]-N-methyl-acetamide], the “Ymin (5 hr)” value is “++++ (Ymin < 30%)” and the DC50 was 10 to 100 nM.

For the compound `CNC(=O)COc1cc2cc(Nc3nc(N4C5COCC4CN(CC4CCN(c6cccc7c(C8CCC(=O)NC8=O)nn(C)c67)CC4)C5)ncc3Cl)cnc2n(C(C)C)c1=O` (stereo not shown) [Compound 162, 2-((6-((5-chloro-2-(7-((1-(3-(2,6-dioxopiperidin-3-yl)-1-methyl-1H-indazol-7-yl)piperidin-4-yl)methyl)-3-oxa-7,9-diazabicyclo[3.3.1]nonan-9-yl)pyrimidin-4-yl)amino)-1-isopropyl-2-oxo-1,2-dihydro-1,8-naphthyridin-3-yl)oxy)-N-methylacetamide], the “Ymin (5 hr)” value is “++++ (Ymin < 30%)” and the DC50 was less than 10 nM.

For `CNC(=O)COc1cc2cc(Nc3nc(N4CCN(CC5CCN(c6cccc7c(C8CCC(=O)NC8=O)nn(C)c67)CC5)CC4)ncc3Cl)cnc2n(CC2CC2)c1=O` (stereo not shown) [Compound 157, 2-((6-((5-chloro-2-(4-((1-(3-(2,6-dioxopiperidin-3-yl)-1-methyl-1H-indazol-7-yl)piperidin-4-yl)methyl)piperazin-1-yl)pyrimidin-4-yl)amino)-1-(cyclopropylmethyl)-2-oxo-1,2-dihydro-1,8-naphthyridin-3-yl)oxy)-N-methylacetamide], the “Ymin (5 hr)” value was “++++ (Ymin < 30%)” and the DC50 was in the range of 10 to 100 nM.

Turning to `CNC(=O)COc1cc2cc(Nc3nc(N4CCC(F)(CN5CCC(c6ccc7c(C8CCC(=O)NC8=O)nn(C)c7c6)CC5)CC4)ncc3Cl)cnc2n(C(C)C)c1=O` (stereo not shown) [Compound 167, 2-[[6-[[5-chloro-2-[4-[[4-[3-(2,6-dioxo-3-piperidyl)-1-methyl-indazol-6-yl]-1-piperidyl]methyl]-4-fluoro-1-piperidyl]pyrimidin-4-yl]amino]-1-isopropyl-2-oxo-1,8-naphthyridin-3-yl]oxy]-N-methyl-acetamide], the “Ymin (5 hr)” value was “++++ (Ymin < 30%)” and the DC50 was less than 10 nM.

As to `CNC(=O)COc1cc2cc(Nc3nc(N4CC[C@H](CNc5cccc6c(C7CCC(=O)NC7=O)nn(C)c56)C4)ncc3Cl)cnc2n(C)c1=O` (stereo partly drawn) [Compound 122a, 2-((6-((5-chloro-2-((3R)-3-(((3-(2,6-dioxopiperidin-3-yl)-1-methyl-1H-indazol-7-yl)amino)methyl)pyrrolidin-1-yl)pyrimidin-4-yl)amino)-1-methyl-2-oxo-1,2-dihydro-1,8-naphthyridin-3-yl)oxy)-N-methylacetamide], the “Ymin (5 hr)” value was “++ (50% ≤ Ymin < 70%)” and the DC50 fell in the range of 10 to 100 nM.

For the compound `CNC(=O)COc1cc2cc(Nc3nc(N4CCC(F)(CN5CCN(c6cccc7c(C8CCC(=O)NC8=O)nn(C)c67)C[C@@H]5C)CC4)ncc3Cl)cnc2n(C(C)C)c1=O` (stereo partly drawn) [Compound 189a, 2-[[6-[[5-chloro-2-[4-[[(2S)-4-[3-(2,6-dioxo-3-piperidyl)-1-methyl-indazol-7-yl]-2-methyl-piperazin-1-yl]methyl]-4-fluoro-1-piperidyl]pyrimidin-4-yl]amino]-1-isopropyl-2-oxo-1,8-naphthyridin-3-yl]oxy]-N-methyl-acetamide], the “Ymin (5 hr)” value is “++++ (Ymin < 30%)” and the DC50 lay in the range of 10 to 100 nM.

For `CNC(=O)COc1cc2cc(Nc3nc(N4CCCN(CC5CCN(c6cccc7c(C8CCC(=O)NC8=O)nn(C)c67)CC5)CC4)ncc3Cl)cnc2n(C)c1=O` (stereo not shown) [Compound 110, 2-((6-((5-chloro-2-(4-((1-(3-(2,6-dioxopiperidin-3-yl)-1-methyl-1H-indazol-7-yl)piperidin-4-yl)methyl)-1,4-diazepan-1-yl)pyrimidin-4-yl)amino)-1-methyl-2-oxo-1,2-dihydro-1,8-naphthyridin-3-yl)oxy)-N-methylacetamide], the “Ymin (5 hr)” value is on record as “+++ (30% ≤ Ymin < 50%)” and the DC50 lay within 10 to 100 nM.

Values taken from patent publication US20260241012A1, “1,8-NAPHTHYRIDIN-2-ONE HETEROBIFUNCTIONAL BCL6 DEGRADERS” (Treeline Biosciences, Inc., priority 2022, published 2026).
